6 molecules from ChEMBL document CHEMBL3046898, “Synthesis and characterization of flurbiprofen hydrazide derivatives as potential anti-HCV, anticancer and antimicrobial agents” (2013) can be followed below.

One experiment deals with Hepacivirus hominis. Briefly: Inhibition of HCV N-terminal His-tagged NS5B RNA dependent RNA polymerase expressed in Escherichia coli DH5alpha using poly rA/U12 as primer at 200 uM after 60 mins by liquid scintillation counting.
Experiment [1] relates to Micrococcus luteus. Kind of experiment: Antibacterial activity against Micrococcus luteus at 100 to 200 ug/ml after 24 hrs by microwell dilution assay. The experiment is classed as functional, organism-based.
Experiment [2] relates to Staphylococcus cohnii. Briefly: Antibacterial activity against Staphylococcus cohnii at 10 mg/ml after 24 hrs by disc diffusion method. The experiment is classed as functional. On the technique in general: In agar diffusion tests the substance spreads into inoculated agar from a disc or well.
The subject of experiment [3] is Staphylococcus aureus. Briefly: Antibacterial activity against Staphylococcus aureus at 10 mg/ml after 24 hrs by disc diffusion method. The experiment is classed as functional.
Experiment [4] relates to Staphylococcus aureus. Kind of experiment: Antibacterial activity against Staphylococcus aureus at 100 to 200 ug/ml after 24 hrs by microwell dilution assay. It is filed as functional, organism-based.
The subject of experiment [5] is Staphylococcus cohnii. Kind of experiment: Antibacterial activity against Staphylococcus cohnii at 100 to 200 ug/ml after 24 hrs by microwell dilution assay. It is filed as functional, organism-based.
Experiment [6] concerns Photorhabdus luminescens. Briefly: Antibacterial activity against Photorhabdus luminescens at 6.25 to 200 ug/ml after 24 hrs by microwell dilution method. The experiment is classed as functional, organism-based.
Experiment [7] relates to Salmonella paratyphi. Kind of experiment: Antibacterial activity against Salmonella paratyphi at 6.25 to 200 ug/ml after 24 hrs by microwell dilution method. It is filed as functional, organism-based. The conditions noted are these: Salmonella enterica subsp. enterica serovar Paratyphi A.
Experiment [8] deals with Staphylococcus aureus. Briefly: Antibacterial activity against Staphylococcus aureus at 6.25 to 200 ug/ml after 24 hrs by microwell dilution assay. It is filed as functional, organism-based.
The test system of experiment [9] is Schwanniomyces occidentalis. Kind of experiment: Antifungal activity against Schwanniomyces occidentalis at 10 mg/ml after 48 hrs by disc diffusion method. It is filed as functional, organism-based.
In experiment [10] the test system is Micrococcus luteus. Kind of experiment: Antibacterial activity against Micrococcus luteus at 10 mg/ml after 24 hrs by disc diffusion method. The experiment is classed as functional, organism-based.
For experiment [11], the system named is Klebsiella aerogenes. Briefly: Antibacterial activity against Enterobacter aerogenes at 10 mg/ml after 24 hrs by disc diffusion method. It is filed as functional, organism-based.
A further experiment has as its system Aspergillus. Kind of experiment: Antifungal activity against Aspergillus at 10 mg/ml after 72 hrs by disc diffusion method. The experiment is classed as functional, organism-based.
In experiment [12] the test system is Photorhabdus luminescens. Briefly: Antibacterial activity against Photorhabdus luminescens at 10 mg/ml after 24 hrs by disc diffusion method. It is filed as functional, organism-based.
Experiment [13] deals with Proteus vulgaris. Kind of experiment: Antibacterial activity against Proteus vulgaris at 6.25 to 200 ug/ml after 24 hrs by microwell dilution method. The experiment is classed as functional, organism-based.
A further experiment has as its system Candida tropicalis. Briefly: Antifungal activity against Candida tropicalis at 10 mg/ml after 48 hrs by disc diffusion method. It is filed as functional, organism-based.
In experiment [14] the test system is Klebsiella aerogenes. Briefly: Antibacterial activity against Enterobacter aerogenes at 6.25 to 200 ug/ml after 24 hrs by microwell dilution method. It is filed as functional, organism-based.
Experiment [15] deals with Escherichia coli. Kind of experiment: Antibacterial activity against Escherichia coli at 6.25 to 200 ug/ml after 24 hrs by microwell dilution method. It is filed as functional, organism-based.
Experiment [16] concerns Pseudomonas aeruginosa. Briefly: Antibacterial activity against Pseudomonas aeruginosa at 10 mg/ml after 24 hrs by disc diffusion method. It is filed as functional, organism-based.
Another experiment deals with Candida albicans. Kind of experiment: Antifungal activity against Candida albicans at 10 mg/ml after 48 hrs by disc diffusion method. The experiment is classed as functional, organism-based.
Experiment [17] relates to Micrococcus lylae. Kind of experiment: Antibacterial activity against Micrococcus lylae at 10 mg/ml after 24 hrs by disc diffusion method. It is filed as functional, organism-based.
The test system of experiment [18] is Acinetobacter radioresistens. Kind of experiment: Antibacterial activity against Acinetobacter radioresistens at 10 mg/ml after 24 hrs by disc diffusion method. The experiment is classed as functional, organism-based.
Experiment [19] relates to Salmonella paratyphi. Briefly: Antibacterial activity against Salmonella paratyphi at 10 mg/ml after 24 hrs by disc diffusion method. The conditions noted are these: Salmonella enterica subsp. enterica serovar Paratyphi A. It is filed as functional, organism-based.
The test system of experiment [20] is Acinetobacter radioresistens. Briefly: Antibacterial activity against Acinetobacter radioresistens at 6.25 to 200 ug/ml after 24 hrs by microwell dilution method. It is filed as functional, organism-based.
The subject of another experiment is Kluyveromyces marxianus. Kind of experiment: Antifungal activity against Kluyveromyces marxianus at 10 mg/ml after 48 hrs by disc diffusion method. It is filed as functional, organism-based.
The subject of the next experiment is Candida parapsilosis. Kind of experiment: Antifungal activity against Candida parapsilosis at 10 mg/ml after 48 hrs by disc diffusion method. The experiment is classed as functional, organism-based.
The next experiment relates to Pichia membranifaciens. Kind of experiment: Antifungal activity against Pichia membranifaciens at 10 mg/ml after 48 hrs by disc diffusion method. The experiment is classed as functional, organism-based.
The test system of experiment [21] is Proteus vulgaris. Kind of experiment: Antibacterial activity against Proteus vulgaris at 10 mg/ml after 24 hrs by disc diffusion method. It is filed as functional, organism-based.
Experiment [22] has as its system Micrococcus luteus. Kind of experiment: Antibacterial activity against Micrococcus luteus at 6.25 to 200 ug/ml after 24 hrs by microwell dilution method. The experiment is classed as functional, organism-based.
For experiment [23], the system named is Micrococcus lylae. Briefly: Antibacterial activity against Micrococcus lylae at 6.25 to 200 ug/ml after 24 hrs by microwell dilution method. It is filed as functional, organism-based.
The test system of experiment [24] is Staphylococcus cohnii. Briefly: Antibacterial activity against Staphylococcus cohnii at 6.25 to 200 ug/ml after 24 hrs by microwell dilution assay. The experiment is classed as functional, organism-based.
Experiment [25] has as its system Escherichia coli. Briefly: Antibacterial activity against Escherichia coli at 10 mg/ml after 24 hrs by disc diffusion method. It is filed as functional, organism-based.
The subject of experiment [26] is Pseudomonas aeruginosa. Briefly: Antibacterial activity against Pseudomonas aeruginosa at 6.25 to 200 ug/ml after 24 hrs by microwell dilution method. The experiment is classed as functional, organism-based.
Another experiment has as its system Nakaseomyces glabratus. Kind of experiment: Antifungal activity against Candida glabrata at 10 mg/ml after 48 hrs by disc diffusion method. The experiment is classed as functional, organism-based.
For the next experiment, the system named is T47D. Kind of experiment: Cytotoxicity against human T47D assessed as cell growth at 10 uM after 48 hrs by SRB assay. It is filed as functional. The note with it: read-out: Activity.
A further experiment has as its system PC-3. Briefly: Cytotoxicity against human PC3 assessed as cell growth at 10 uM after 48 hrs by SRB assay. The experiment is classed as functional. The note with it: PC-3, 48 h, read-out: Activity.
A further experiment has as its system CAKI-1. Briefly: Cytotoxicity against human Caki1 assessed as cell growth at 10 uM after 48 hrs by SRB assay. The experiment is classed as functional. The note with it: CAKI-1, 48 h, read-out: Activity. (In general: In SRB staining, fixed cells bind dye roughly in proportion to their protein.)
The next experiment has as its system MDA-MB-468. Briefly: Cytotoxicity against human MDA-MB-468 assessed as cell growth at 10 uM after 48 hrs by SRB assay. It is filed as functional. The conditions noted are these: MDA-MB-468, 48 h, read-out: Activity.

The source made the active and inactive calls. No cut-off for these calls is given here.

With `CC(C(=O)NN1C(=O)CSC1c1ccc([N+](=O)[O-])o1)c1ccc(-c2ccccc2)c(F)c1` (stereo not given), the inhibition in the experiment with Hepacivirus hominis amounted to 8%. The outcome in the experiment with Micrococcus luteus [1], with Staphylococcus aureus [4] and in the experiment on Staphylococcus cohnii [5] was Active. Besides, the zone of inhibition at 10000 µg/mL in the experiment on Staphylococcus cohnii [2] (read-out: DIZ) and in the experiment with Staphylococcus aureus [3] (read-out: DIZ) was 10 mm each time.

Consider `CC(C(=O)N/N=C/c1c(F)cccc1F)c1ccc(-c2ccccc2)c(F)c1` (stereo not given), for which the outcome (in the experiment on Photorhabdus luminescens [6]; in the experiment with Salmonella paratyphi [7]; in the experiment on Staphylococcus aureus [8]; in experiment [9]; in the experiment on Micrococcus luteus [10]; in the experiment with Klebsiella aerogenes [11]) was inactive. For the same molecule, the result with Aspergillus, in the experiment on Photorhabdus luminescens [12], with Proteus vulgaris [13], in the experiment with Candida tropicalis, with Klebsiella aerogenes [14] and with Escherichia coli [15] was inactive. The result (in the experiment on Pseudomonas aeruginosa [16]; in the experiment on Candida albicans; in the experiment on Micrococcus lylae [17]; in experiment [18]; with Salmonella paratyphi [19]; in experiment [20]) was inactive. Moreover, the outcome with Kluyveromyces marxianus, with Candida parapsilosis, with Staphylococcus cohnii [2], in the experiment on Pichia membranifaciens, in the experiment with Proteus vulgaris [21] and in the experiment with Micrococcus luteus [22] was inactive. The result in the experiment on Staphylococcus aureus [3], with Micrococcus lylae [23], in the experiment with Staphylococcus cohnii [24], in the experiment on Escherichia coli [25], with Pseudomonas aeruginosa [26] and in the experiment on Nakaseomyces glabratus was inactive. The inhibition in the experiment on Hepacivirus hominis was 8%. The growth at 10 µM in the experiment on T47D was determined as 55.3%.

In the case of `CC(C(=O)NN1C(=O)CSC1c1ccc(Cl)cc1)c1ccc(-c2ccccc2)c(F)c1` (stereo not given), the inhibition in the experiment on Hepacivirus hominis was 8%. Besides, the outcome in the experiment on Micrococcus luteus [1], with Staphylococcus aureus [4] and with Staphylococcus cohnii [5] was Active. Further, the results for the growth at 10 µM with PC-3, with CAKI-1 and in the experiment with T47D were 49.2%, 29.6% and 50.9%, respectively.

Turning to `CCN1C(=O)CS/C1=N\NC(=O)C(C)c1ccc(-c2ccccc2)c(F)c1` (stereo not given), the outcome (in the experiment on Photorhabdus luminescens [6]; with Salmonella paratyphi [7]; in the experiment on Staphylococcus aureus [8]; in [9]; with Micrococcus luteus [10]; in the experiment with Klebsiella aerogenes [11]) was inactive. Besides, the result with Aspergillus, in the experiment on Photorhabdus luminescens [12], in the experiment with Proteus vulgaris [13], with Candida tropicalis, with Klebsiella aerogenes [14] and in the experiment on Escherichia coli [15] was inactive. For the same molecule, the result (in the experiment with Pseudomonas aeruginosa [16]; with Candida albicans; with Micrococcus lylae [17]; in experiment [18]; with Salmonella paratyphi [19]; in experiment [20]) was inactive. The result in the experiment with Kluyveromyces marxianus, with Candida parapsilosis, in the experiment with Staphylococcus cohnii [2], in the experiment on Pichia membranifaciens, in the experiment with Proteus vulgaris [21] and in the experiment on Micrococcus luteus [22] was inactive. Moreover, the result in the experiment on Staphylococcus aureus [3], in the experiment on Micrococcus lylae [23], with Staphylococcus cohnii [24], in the experiment with Escherichia coli [25], with Pseudomonas aeruginosa [26] and in the experiment on Nakaseomyces glabratus was inactive. In addition, the inhibition in the experiment on Hepacivirus hominis was 8%. The growth at 10 µM was 43.6% with MDA-MB-468 and 55.2% in the experiment on T47D.

As for `CC(C(=O)N/N=C/c1ccccc1F)c1ccc(-c2ccccc2)c(F)c1` (stereo not given), the result (in the experiment with Photorhabdus luminescens [6]; with Salmonella paratyphi [7]; with Staphylococcus aureus [8]; in experiment [9]; with Micrococcus luteus [10]; in the experiment with Klebsiella aerogenes [11]) was inactive. In addition, the result in the experiment on Aspergillus, in the experiment with Photorhabdus luminescens [12], in the experiment with Proteus vulgaris [13], in the experiment with Candida tropicalis, with Klebsiella aerogenes [14] and in the experiment on Escherichia coli [15] was inactive. Further, the outcome (with Pseudomonas aeruginosa [16]; in the experiment with Candida albicans; with Micrococcus lylae [17]; in experiment [18]; with Salmonella paratyphi [19]; in experiment [20]) was inactive. In addition, the result in the experiment on Kluyveromyces marxianus, in the experiment on Candida parapsilosis, in the experiment on Staphylococcus cohnii [2], in the experiment on Pichia membranifaciens, in the experiment with Proteus vulgaris [21] and in the experiment on Micrococcus luteus [22] was inactive. The outcome in the experiment on Staphylococcus aureus [3], in the experiment with Micrococcus lylae [23], with Staphylococcus cohnii [24], with Escherichia coli [25], in the experiment on Pseudomonas aeruginosa [26] and with Nakaseomyces glabratus was inactive. For the same molecule, the inhibition with Hepacivirus hominis turned out to be 8%.

On to `CCNC(=S)NNC(=O)C(C)c1ccc(-c2ccccc2)c(F)c1` (stereo not given), for which the outcome (with Photorhabdus luminescens [6]; with Salmonella paratyphi [7]; in the experiment with Staphylococcus aureus [8]; in experiment [9]; in the experiment on Micrococcus luteus [10]; in the experiment with Klebsiella aerogenes [11]) was inactive. Further, the result with Aspergillus, in the experiment on Photorhabdus luminescens [12], in the experiment on Proteus vulgaris [13], with Candida tropicalis, with Klebsiella aerogenes [14] and with Escherichia coli [15] was inactive. The outcome (in the experiment with Pseudomonas aeruginosa [16]; in the experiment on Candida albicans; in the experiment with Micrococcus lylae [17]; in [18]; in the experiment on Salmonella paratyphi [19]; in experiment [20]) was inactive. The outcome in the experiment on Kluyveromyces marxianus, with Candida parapsilosis, in the experiment with Staphylococcus cohnii [2], in the experiment on Pichia membranifaciens, with Proteus vulgaris [21] and in the experiment on Micrococcus luteus [22] was inactive. The result in the experiment on Staphylococcus aureus [3], in the experiment on Micrococcus lylae [23], with Staphylococcus cohnii [24], in the experiment on Escherichia coli [25], in the experiment on Pseudomonas aeruginosa [26] and in the experiment with Nakaseomyces glabratus was inactive. Further, the inhibition with Hepacivirus hominis came to 8%.

By inhibition is commonly meant the relative decrease from the control value, in per cent.
